Laboratory results from patent US20220395559A1, “SOLID COMPOSITIONS COMPRISING A GLP-1 AGONIST, AN SGLT2 INHIBITOR AND A SALT OF N-(8-(2-HYDROXYBENZOYL)AMINO)CAPRYLIC ACID” (Novo Nordisk A/S, priority 2019, published 2022).
Read-outs that look alike come from different tables or passages of the source.

Legend:
[1] = pH 6
[2] = SNAC solubility vs SNAC control, hydrotrope 200 mg/mL, pH 6
[3] = hydrotrope 200 mg/mL in water, pH 6, room temperature, 4 hours incubation

| SMILES | Fold increase in solubility [2] | SNAC concentration [3] [mg/mL] | effect on SNAC solubility (FIG. 1) [1] | Fold increase in solubility (pH 6) | SNAC concentration (pH 6) [mg/mL] |
| --- | --- | --- | --- | --- | --- |
| O=C(O[C@@H]1Cc2c(O)cc(O)cc2O[C@@H]1c1cc(O)c(O)c(O)c1)c1cc(O)c(O)c(O)c1 [Epigallocatechin gallate] | 9.6 | 5.66 | – | – | – |
| CCN(CC)C(=O)c1cccnc1 [N,N diethyl nicotinamide] | 7.8 | 4.58 | – | – | – |
| CN(C)C(=O)c1ccccc1 [N,N dimethyl benzamide] | 38 | 22.46 | – | – | – |
| NC(=O)c1cccnc1 [Nicotinamide] | – | – | dose dependent effect | – | – |
| O=C([O-])c1ccccc1O.[Na+] [Sodium salicylate] | – | – | – | 2.7 | 1.59 |
| NC(N)=O [Urea] | 1.3 | 0.77 | – | – | – |
